{"source": "patent US5932555A", "about": "(priority 1997, dated 1999)", "key": {"[1]": {"system": "adriamycin-resistant P388", "assay": "Cytotoxicity test on adriamycin-resistant P388 (P388/ADR) (MTT, 72 h)", "format": "cell-based", "experimental": "Cultured tumor cell lines P388 and P388/ADR were suspended in RPMI1640 medium containing 10% heat inactivated fetal calf serum (FCS) and 20 μM 2-mercaptoethanol whereby a cell suspension (5×10^4 cells/ml) was prepared.\nA sample examined was dissolved in methanol, then diluted with RPMI 1640 medium and subjected to serial 2-fold dilution starting at the concentration of 0.1 mg/ml. 180 μl of the cell suspension and 20 μl of the sample solution were added into a 96-well micro-titer plate and incubated at 37° C. in wet 5% CO2 gas/95% air. 72 hours thereafter, cell growth was measured by a calorimetric assay method using 3-(4,5-dimethyl-2-thiazolyl)-2,5-diphenyl-2H-tetrazolium bromide (MTT) as follows: 20 μl of 2 mg/ml MTT solution was added to each well and the cells were incubated for 4 hours at 37° C. Thereafter, 50 μl of 50% dimethylformamide solution containing 20% sodium dodecyl sulfate was added to each well and allowed to stand, so that the formed violet formazan crystal was dissolved, and its absorbance at 570 nm was measured in a microplate absorbance photometer (Immunoreader) and used as an indicator of the growth. The result was expressed in terms of the concentration of a sample at which growth was inhibited by 50% (IC50), which was determined from the relationship between sample concentrations and degrees of inhibition calculated using the following equation (1):\nDegree of inhibition=[1-(absorbance in presence of sample)/(absorbance in\nabsence of sample)]×100 (1)"}, "[2]": {"system": "P388", "assay": "Mouse in vivo antitumor test, P388 transplanted", "experimental": "(§1) 2×10^5 cells of P388 or P388/ADR were inoculated intraperitoneally into each of CDF1 mice (male, each weighing 20 g, 10 animals/group), and from the next day, the test solution was administered at 10, 5, and 1 mg/kg body weight/day respectively by intraperitoneal injection of 200 μl sample at each concentration once a day for 10 successive days. The numbers with time of mice which survived after administration was counted and the average survival days and T/C (survival days of treated mice/survival days of control mice) were calculated. The average body weights after 10 days were also measured."}, "[3]": {"system": "P388/ADR", "assay": "Mouse in vivo antitumor test, P388/ADR transplanted", "conditions": "for T/C / average body weight after 10 days / average survival days: P388/ADR", "experimental": "as §1"}, "[4]": {"system": "blastgenesis of lymphocytes", "assay": "Mouse allogenic mixed lymphocyte reaction (MLR), inhibition of blastgenesis ([3H]-thymidine incorporation)", "format": "cell-based, mouse (C57BL/6 responder, BALB/C stimulator)", "conditions": "96 h", "experimental": "The mouse allogenic mixed lymphocyte reaction for assay was carried out according to the method of Hatanaka et al. (Hatanaka et al., J. Antibiotics, 41, 1592-1601 (1988)). That is, spleen cells from C57BL/6 mouse (H-2^b) as responder cells were mixed with spleen cells from BALB/C mouse (H-2^d) treated with mitomycin C as stimulator cells, and then cultured.\nPreparation of the responder cells was carried out in the following manner:\nThe spleen was removed from a 5- to 6-week-old C57BL/6 mouse, then homogenized in 20 ml ice-cold RPMI 1640 medium supplemented with 10% heat inactivated fetal calf serum (FCS), and filtered through a gauze to give a single cell suspension. The cells were recovered by centrifugation, suspended in 4 ml PRMI 1640 medium, followed by adding 6 ml solution (pH 7.2) containing 0.15 M ammonium chloride, 1 mM sodium hydrogen carbonate and 0.1 mM tetrasodium ethylenediaminetetraacetate, and the mixture was incubated at 0° C. for 1 minute to remove the contaminating erythrocytes. […]\n90 μl of the responder cell suspension, 90 μl of the stimulator cell suspension and 20 μl of sample were added to a 96-well microplate and incubated at 37° C. in wet 5% CO2 /95% air for 96 hours. […] The radioactivity of a filter disk corresponding to each well was determined using liquid scintillation counter (beta-counter)."}, "[5]": {"assay": "Repeated administration toxicity test (intraperitoneal)", "format": "in vivo, mouse (CDF1)", "conditions": "mouse, in vivo, ip, read-out: Fatality rate", "experimental": "As the comparative control, test solutions of adriamycin were prepared in the same manner. […] The number with time of survived animals after administration and the average body weights on Days 0, 5, and 10 were determined."}, "[6]": {"assay": "Solubility", "format": "physicochemical"}, "[7]": {"assay": "Acute toxicity test", "conditions": "mouse, in vivo, iv"}, "[8]": {"system": "ICR mice", "assay": "Acute toxicity test"}, "[9]": {"conditions": "P388, 1 mg/kg/day i.p. × 10 days"}, "[10]": {"conditions": "P388, 5 mg/kg/day i.p. × 10 days"}, "[11]": {"conditions": "P388, 10 mg/kg/day i.p. × 10 days"}}, "note": "Read-outs that look alike come from different tables or passages of the source.", "data": [{"smiles": "COC(CC1C(C)=CCC2C1(C)CCC1C(C)(C)C(O)C(OC3OC(C)C(OC(=O)c4cccc(O)c4)C(OC4OC(CO)C(O)C(O)C4NC(C)=O)C3O)CC12C)C(N)C(=O)O", "note": "(stereo not drawn) [0406TP-1]", "values": [{"measurement": "IC50", "setting": "[1]; Mus musculus, adriamycin-resistant P388, 72 h, MTT, read-out: IC50 (growth inhibition)", "result": 0.22, "unit": "µg/mL"}, {"measurement": "inhibition on growth of adriamycin-resistant cells", "setting": "[1]; in words", "result": "strong inhibition"}, {"measurement": "T/C", "setting": "[2]; [9]", "result": 123, "unit": "%"}, {"measurement": "average body weight after 10 days", "setting": "[2]; [9]", "result": 25.9, "unit": "g"}, {"measurement": "average survival days", "setting": "[2]; [9]", "result": 12.7, "unit": "days"}, {"measurement": "T/C", "setting": "[2]; [10]", "result": 123, "unit": "%"}, {"measurement": "average body weight after 10 days", "setting": "[2]; [10]", "result": 26.3, "unit": "g"}, {"measurement": "average survival days", "setting": "[2]; [10]", "result": 12.7, "unit": "days"}, {"measurement": "T/C", "setting": "[2]; [11]", "result": 128, "unit": "%"}, {"measurement": "average body weight after 10 days", "setting": "[2]; [11]", "result": 27.3, "unit": "g"}, {"measurement": "average survival days", "setting": "[2]; [11]", "result": 13.2, "unit": "days"}, {"measurement": "therapeutic effect (improvement in survival rate)", "setting": "[2]; P388-transplanted mice, adriamycin 1 mg/kg/day vs 0406TP-1", "result": "same degree of therapeutic effect"}, {"measurement": "T/C", "setting": "[3]; 1 mg/kg/day i.p. × 10 days", "result": 130, "unit": "%"}, {"measurement": "average body weight after 10 days", "setting": "[3]; 1 mg/kg/day i.p. × 10 days", "result": 26.2, "unit": "g"}, {"measurement": "average survival days", "setting": "[3]; 1 mg/kg/day i.p. × 10 days", "result": 14.4, "unit": "days"}, {"measurement": "T/C", "setting": "[3]; 5 mg/kg/day i.p. × 10 days", "result": 133, "unit": "%"}, {"measurement": "average body weight after 10 days", "setting": "[3]; 5 mg/kg/day i.p. × 10 days", "result": 27.3, "unit": "g"}, {"measurement": "average survival days", "setting": "[3]; 5 mg/kg/day i.p. × 10 days", "result": 14.8, "unit": "days"}, {"measurement": "T/C", "setting": "[3]; 10 mg/kg/day i.p. × 10 days", "result": 165, "unit": "%"}, {"measurement": "average body weight after 10 days", "setting": "[3]; 10 mg/kg/day i.p. × 10 days", "result": 26.4, "unit": "g"}, {"measurement": "average survival days", "setting": "[3]; 10 mg/kg/day i.p. × 10 days", "result": 18.3, "unit": "days"}, {"measurement": "therapeutic effect", "setting": "[3]; P388/ADR-transplanted mice", "result": "significant therapeutic effect"}, {"measurement": "IC50", "setting": "[4]", "result": 0.11, "unit": "µg/mL"}, {"measurement": "mortality", "setting": "[5]; 1 mg/kg/day i.p. × 10 days", "result": 0, "unit": "%"}, {"measurement": "mortality", "setting": "[5]; 5 mg/kg/day i.p. × 10 days", "result": 0, "unit": "%"}, {"measurement": "mortality", "setting": "[5]; 10 mg/kg/day i.p. × 10 days", "result": 0, "unit": "%"}, {"measurement": "Solubility", "setting": "[6]; acetone", "result": "Insoluble"}, {"measurement": "Solubility", "setting": "[6]; chloroform", "result": "Insoluble"}, {"measurement": "Solubility", "setting": "[6]; ethanol", "result": "Soluble"}, {"measurement": "Solubility", "setting": "[6]; ether", "result": "Insoluble"}, {"measurement": "Solubility", "setting": "[6]; ethyl acetate", "result": "Insoluble"}, {"measurement": "Solubility", "setting": "[6]; methanol", "result": "Soluble"}, {"measurement": "Solubility", "setting": "[6]; water", "result": "Soluble"}, {"measurement": "LD50 at 730 h", "setting": "[7]", "result": "> 100", "unit": "mg/kg"}, {"measurement": "survival", "setting": "[8]; 100 mg/kg i.v., one month observation", "result": "all survived"}, {"measurement": "toxicity and safety", "setting": "[8]; acute toxicity test, in words", "result": "low toxicity"}]}]}
